Experimental data taken from US20190298717A1 (BOARD OF REGENTS, THE UNIVERSITY OF TEXAS SYSTEM, priority 2016, published 2019).
Entries after “also recorded” stand apart in the source; their conditions may differ.

What was measured:
[1] = test system: SH-SY5Y cells; experiment: H2O2-EC50 of hydralazine and its analogs (protection from H2O2 stress); assay type: cell-based; conditions: Homo sapiens
Procedure: To generate intracellular aldehydes, the inventors treated human neuroblastoma cell line (SH-SY5Y) with 100 μM hydrogen peroxide (H2O2) for 24 h. Carbonyl groups were quantified using 2,4-DNPH (dinitrophenylhydrazine) assay.
Cell Viability and Cytotoxicity Assay. Cell growth was analyzed using the MTT cell viability assay. Briefly, at the end of incubation/treatment, MTT reagent was diluted in culture medium and aliquoted into each well. After incubation for 2 hours, the medium was aspirated and DMSO was aliquoted into each well to disrupt the cells and dissolve the intracellular MTT dyes. Absorbance was read at 570 nm wavelength in a 96-well plate reader. Cell toxicity was detected using a LDH cell toxicity assay kit (Promega, Fitchburg Wis.). This is a coupled enzymatic assay that detects a visible color signal initially described by Nachlas et. al. The reagent contained excess concentrations of lactate and NAD+as substrates to drive the LDH reaction and produce NADH. In the presence of diaphorase, NADH drives the enzyme-catalyzed conversion of iodonitro-tetrazolium violet to a red formazan product. Briefly, DMEM medium was withdrawn from each well of the plate after treatment and briefly centrifuged to get rid of floating cells or cell debris. Then, the medium supernatant was mixed with equal volume of substrate/enzyme mixture included in the kit (lactate, NAD+, diaphorase and iodonitro-tetrazolium violet), followed by incubation at room temperature for 15 minutes before the addition of acetic acid to cease the reaction. The absorbance was read at 490 nm in a 96-well plate reader. […] Cell viability assay was performed using CellTiter-Glo assay.

[2] = test system: SH-SY5Y cells; experiment: Mitochondrial membrane potential (TMRE); assay type: cell-based, human; conditions: hydralazine 0, 10, 20 μM; isoniazid 20 μM
Procedure: Cells were stained by TMRE to tag active mitochondria. Florescence signal was quantified by Flow Jo software. […] ATP levels were measured by bioluminescent detection of luciferase activity. All data are presented normalized to cell number.
The mitochondrial membrane potential was measured as an indicator of cellular energetics and ATP content.

[3] = test system: C. elegans; experiment: Rotenone stress test in worms; assay type: in vivo; conditions: in vivo
Text: The inventors again used rotenone to elicit PD-like changes.
Rotenone stress test. […] After 3 days young adult worms were transferred to fresh NGM plates either preloaded with rotenone alone or rotenone plus any of the abovementioned compounds. Every worm was subjected to prodding test with a worm pick every day. A worm was scored as dead when not responding to three repeated proddings. Survival curve was plotted using Prism 7.

[4] = test system: Nrf2; conditions: SH-SY5Y, 5 μM sulforaphane
Procedure: The inventors quantified Nrf2 protein in treated cells as a first step towards validating the prediction of the Nrf2 pathway.
Nrf2 phosphorylation on serine 40 is a regulatory modification required for Nrf2 translocation to nucleus and downstream protein activation.
Western Blot Analysis. Protein expression was determined by Western blot analysis. Equal amount of protein from each sample was run in Tris-glycine SDS PAGE gel, followed by transferring to PVDF membrane. After blocking the membrane with 5% milk for 1 hour at room temperature, the membrane was incubated further for 2 hours with antibodies specific for target proteins: Nrf2, pNrf2(S40) from Novus (Littleton, Colo.); Keap1, HO-1, NQO1, GCLc, GCLm and lamin B1 from Cell Signaling (Danvers, Mass.); GAPDH from Santa Cruz (Dallas, Tex.); β-Actin from Thermo Fisher (Waltham, Mass.). The membrane was subsequently incubated with species-specific HRP-conjugated secondary antibody followed by incubation with chemiluminescence substrate and imaging. The band intensity of each of the target proteins was quantified using ImageQuant software (GE Healthcare, Sweden). Western blot analysis on worm lystaes was done similarly. […] Equal amounts of protein were run on the gel and SKN-1 protein level was detected using anti-GFP antibody.
Cell Fractionation. Nuclear and cytoplasmic fractions were separated using the protocol and NE-PER Nuclear and Cytoplasmic Extraction Reagents provided by […]. Briefly, the cells were harvested and washed with ice-cold PBS buffer. The cells were resuspended in ice-cold CER-I buffer and incubated on ice for 10 minutes, followed by addition of CER-II buffer and incubation for one more minute on ice. The lysate was centrifuged at 16,000 g for 5 minutes. The supernatant was the cytoplasmic fraction. The pellet obtained was lysed in ice-cold NER buffer to obtain nuclear protein fractions.

Structure (SMILES)	EC50 [1] [µM]	other results
C#CCOc1nnc(NN)c2ccccc12 [1-Hydrazinyl-4-(prop-2-yn-1-yloxy)phthalazine]	4.32	–
Oc1nnc(Cl)c2ccccc12 [4-Chlorophthalazin-1-ol]	≥ 20	–
NNC(=O)c1ccncc1 [Isonicotinohydrazide]	≥ 50	mitochondrial membrane potential / mitochondrial function (TMRE) [2]: did not have a positive effects on mitochondrial function
[Cl-].[Na+] [NaCl]	–	protection against rotenone-induced death [3]: No protection; also recorded: did not protect worms
C[S+]([O-])CCCCN=C=S (centres unmarked) [sulforaphane]	–	phosphorylation and nuclear localization of Nrf2 (positive control) [4]: caused similar changes

Now from value to molecule, other results behind:

EC50 [1] [µM]	Structure (SMILES)	other results
≥ 50	CN(C)Nc1nncc2ccccc12	–
≥ 20	NNc1nnc(Cl)c2ccccc12 [1-Chloro-4-hydrazinyl-phthalazine, 1-Chloro-4-hydrazinylphthalazine]	–
≥ 10	NNc1nnc(O)c2ccccc12 [4-Hydrazinylphthalazin-1-ol, 4-Hydrazinylphthalazin-1-ol]	–
≥ 50	Cc1nc2c3ccccc3c(NN)nn2n1 [6-Hydrazinyl-2-methyl-[1,2,4]triazolo[5,1-a]phthalazine]	–
≥ 50	O=c1[nH]ncc2ccccc12 [Phthalazin-1(2H)-one]	–
